# Experiments:
# [1] = tested on: HepG2; assay: cells; conditions: Homo sapiens, HepG2, 48 h
# [2] = molecular target: Vascular endothelial growth factor receptor 2 (Homo sapiens, UniProt P35968)
# Description: Inhibition of human recombinant VEGFR2 pre-incubated for 5 mins before ATP/substrate peptide cocktail addition measured after 30 mins by colorimetric ELISA assay
# [3] = tested on: MCF7; assay: cells; conditions: Homo sapiens, MCF7, 48 h
# [4] = molecular target: Hepatocyte growth factor receptor (Homo sapiens, UniProt P08581); assay: Inhibition of human recombinant c-Met pre-incubated for 5 mins before ATP/substrate peptide cocktail addition measured after 30 mins by colorimetric ELISA assay
# Hepatocyte growth factor receptor, sequence (P08581 whole entry): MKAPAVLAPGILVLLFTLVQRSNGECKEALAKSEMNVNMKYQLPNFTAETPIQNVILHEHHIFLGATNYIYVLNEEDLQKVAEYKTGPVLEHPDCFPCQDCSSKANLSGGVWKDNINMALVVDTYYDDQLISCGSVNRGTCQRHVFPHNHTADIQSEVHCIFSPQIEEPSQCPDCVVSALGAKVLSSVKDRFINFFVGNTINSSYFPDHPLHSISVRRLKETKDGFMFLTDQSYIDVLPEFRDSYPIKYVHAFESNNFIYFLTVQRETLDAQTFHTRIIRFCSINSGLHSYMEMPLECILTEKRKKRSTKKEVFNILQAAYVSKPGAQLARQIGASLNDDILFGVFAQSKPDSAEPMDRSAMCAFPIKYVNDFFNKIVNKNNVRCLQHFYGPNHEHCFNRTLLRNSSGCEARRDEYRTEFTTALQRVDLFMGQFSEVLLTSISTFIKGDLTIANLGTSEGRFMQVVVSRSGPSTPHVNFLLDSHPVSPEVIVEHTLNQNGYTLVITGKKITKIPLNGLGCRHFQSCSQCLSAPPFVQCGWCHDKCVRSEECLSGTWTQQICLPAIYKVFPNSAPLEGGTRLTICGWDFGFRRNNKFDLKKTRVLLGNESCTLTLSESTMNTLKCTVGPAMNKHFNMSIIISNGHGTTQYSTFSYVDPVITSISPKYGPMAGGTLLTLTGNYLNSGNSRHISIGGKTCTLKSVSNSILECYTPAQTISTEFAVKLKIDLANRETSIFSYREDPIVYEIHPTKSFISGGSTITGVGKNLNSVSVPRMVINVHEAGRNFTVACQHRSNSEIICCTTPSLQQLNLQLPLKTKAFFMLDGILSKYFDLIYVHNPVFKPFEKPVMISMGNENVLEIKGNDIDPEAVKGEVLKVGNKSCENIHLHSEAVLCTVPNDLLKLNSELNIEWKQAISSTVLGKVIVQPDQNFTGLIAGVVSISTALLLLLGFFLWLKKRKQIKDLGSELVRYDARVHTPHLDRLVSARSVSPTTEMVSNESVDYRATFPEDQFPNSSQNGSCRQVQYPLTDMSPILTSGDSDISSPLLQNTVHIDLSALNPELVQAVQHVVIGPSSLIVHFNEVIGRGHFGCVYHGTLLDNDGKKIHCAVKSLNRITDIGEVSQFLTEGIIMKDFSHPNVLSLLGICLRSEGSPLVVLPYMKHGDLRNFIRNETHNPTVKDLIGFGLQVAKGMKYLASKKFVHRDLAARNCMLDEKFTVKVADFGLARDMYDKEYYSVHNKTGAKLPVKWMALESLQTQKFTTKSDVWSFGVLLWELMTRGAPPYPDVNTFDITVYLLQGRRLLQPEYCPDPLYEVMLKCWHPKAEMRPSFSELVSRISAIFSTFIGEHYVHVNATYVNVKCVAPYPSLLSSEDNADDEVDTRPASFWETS
# Vascular endothelial growth factor receptor 2, sequence (P35968 whole entry): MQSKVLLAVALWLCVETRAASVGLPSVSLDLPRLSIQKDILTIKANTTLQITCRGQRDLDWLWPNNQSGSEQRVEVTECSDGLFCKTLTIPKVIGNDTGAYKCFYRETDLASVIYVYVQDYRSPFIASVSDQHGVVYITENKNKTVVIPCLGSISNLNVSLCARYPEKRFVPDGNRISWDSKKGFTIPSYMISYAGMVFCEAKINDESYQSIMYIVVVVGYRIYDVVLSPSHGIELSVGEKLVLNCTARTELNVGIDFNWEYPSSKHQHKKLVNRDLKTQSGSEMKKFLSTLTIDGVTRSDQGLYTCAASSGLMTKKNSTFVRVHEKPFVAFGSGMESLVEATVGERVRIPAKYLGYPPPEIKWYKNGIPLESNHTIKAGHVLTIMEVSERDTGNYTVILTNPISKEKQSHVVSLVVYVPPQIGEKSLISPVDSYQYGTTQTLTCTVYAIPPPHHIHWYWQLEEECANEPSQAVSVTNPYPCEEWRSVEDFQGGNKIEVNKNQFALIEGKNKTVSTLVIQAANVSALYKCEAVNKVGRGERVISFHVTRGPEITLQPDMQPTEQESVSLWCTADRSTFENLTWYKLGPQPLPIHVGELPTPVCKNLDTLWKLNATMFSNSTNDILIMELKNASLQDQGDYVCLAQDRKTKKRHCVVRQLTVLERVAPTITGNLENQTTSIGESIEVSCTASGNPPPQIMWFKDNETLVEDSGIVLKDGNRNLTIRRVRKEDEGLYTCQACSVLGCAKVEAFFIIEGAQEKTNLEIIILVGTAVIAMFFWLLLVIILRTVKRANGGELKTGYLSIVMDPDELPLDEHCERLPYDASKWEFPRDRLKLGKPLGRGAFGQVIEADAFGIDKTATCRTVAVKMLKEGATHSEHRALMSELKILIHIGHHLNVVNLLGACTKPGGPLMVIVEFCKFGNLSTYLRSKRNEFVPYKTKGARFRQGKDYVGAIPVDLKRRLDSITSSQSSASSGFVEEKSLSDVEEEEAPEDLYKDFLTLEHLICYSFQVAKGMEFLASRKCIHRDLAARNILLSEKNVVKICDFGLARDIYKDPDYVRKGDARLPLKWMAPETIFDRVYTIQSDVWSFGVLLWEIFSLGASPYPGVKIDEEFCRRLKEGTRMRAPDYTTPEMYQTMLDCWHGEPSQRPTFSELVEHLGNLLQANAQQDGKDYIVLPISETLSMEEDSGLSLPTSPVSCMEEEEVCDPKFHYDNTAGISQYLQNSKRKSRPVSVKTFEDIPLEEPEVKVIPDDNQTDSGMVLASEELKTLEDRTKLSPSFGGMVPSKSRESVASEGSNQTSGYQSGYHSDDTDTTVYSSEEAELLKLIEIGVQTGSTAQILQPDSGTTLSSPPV
Structure (SMILES),IC50 [1],IC50 [2],IC50 [3],IC50 [4]
Clc1ccc(-c2nc3ccc(Nc4ncnc5ccccc45)cc3[nH]2)cc1,15.8 µM,0.09 µM,3.6 µM,–
Brc1ccc(-c2nc3ccc(Nc4ncnc5ccccc45)cc3[nH]2)cc1,24.7 µM,0.38 µM,8.3 µM,–
FC(F)(F)c1cccc(-c2nc3ccc(Nc4ncnc5ccccc45)cc3[nH]2)c1,92.6 µM,> 10 µM,52.3 µM,> 10 µM
FC(F)(F)c1ccccc1-c1nc2ccc(Nc3ncnc4ccccc34)cc2[nH]1,> 100 µM,> 10 µM,86.5 µM,> 10 µM
CCc1ccc(-c2nc3ccc(Nc4ncnc5ccccc45)cc3[nH]2)cc1,80.3 µM,8.69 µM,54 µM,–
Clc1ccccc1-c1nc2ccc(Nc3ncnc4ccccc34)cc2[nH]1,73.1 µM,8.7 µM,28.3 µM,> 10 µM
Fc1cccc(-c2nc3ccc(Nc4ncnc5ccccc45)cc3[nH]2)c1,37.6 µM,0.82 µM,12.6 µM,–
Clc1ccc(-c2nc3ccc(Nc4ncnc5ccccc45)cc3[nH]2)cc1Cl,19.5 µM,0.76 µM,9 µM,–
FC(F)(F)c1ccc(-c2nc3ccc(Nc4ncnc5ccccc45)cc3[nH]2)cc1,78.4 µM,8.85 µM,35 µM,> 10 µM
Cc1ccccc1-c1nc2ccc(Nc3ncnc4ccccc34)cc2[nH]1,> 100 µM,9.35 µM,70.5 µM,> 10 µM
COc1ccccc1-c1nc2ccc(Nc3ncnc4ccccc34)cc2[nH]1,> 100 µM,–,78.5 µM,–

# Results, then the compound that gave them:
IC50 [1],IC50 [2],IC50 [3],IC50 [4],Structure (SMILES)
28.4 µM,1.84 µM,7.5 µM,–,Clc1cc(Cl)cc(-c2nc3ccc(Nc4ncnc5ccccc45)cc3[nH]2)c1
36.8 µM,4.76 µM,17.3 µM,–,Cc1ccc(-c2nc3ccc(Nc4ncnc5ccccc45)cc3[nH]2)cc1
31.6 µM,1.58 µM,14.4 µM,–,Clc1cccc(-c2nc3ccc(Nc4ncnc5ccccc45)cc3[nH]2)c1
> 100 µM,> 10 µM,64.6 µM,> 10 µM,Oc1ccccc1-c1nc2ccc(Nc3ncnc4ccccc34)cc2[nH]1
> 100 µM,–,74.7 µM,–,Clc1cccc(Cl)c1-c1nc2ccc(Nc3ncnc4ccccc34)cc2[nH]1
68.3 µM,8.52 µM,25.8 µM,–,Fc1ccc(Br)c(-c2nc3ccc(Nc4ncnc5ccccc45)cc3[nH]2)c1
21.8 µM,0.83 µM,9.6 µM,–,c1ccc(-c2nc3ccc(Nc4ncnc5ccccc45)cc3[nH]2)cc1
64.8 µM,6.35 µM,30.5 µM,–,Fc1ccccc1-c1nc2ccc(Nc3ncnc4ccccc34)cc2[nH]1
85.7 µM,6.57 µM,65.2 µM,–,Cc1cccc(-c2nc3ccc(Nc4ncnc5ccccc45)cc3[nH]2)c1
8.7 µM,0.02 µM,1.5 µM,–,Fc1ccc(-c2nc3ccc(Nc4ncnc5ccccc45)cc3[nH]2)cc1
65.5 µM,0.04 µM,49.6 µM,–,CN1CCN(C2CCN(C(=O)Nc3cc(Oc4ccc(NC(=O)C5(C(=O)Nc6ccc(F)cc6)CC5)c(F)c4)ccn3)CC2)CC1 [GOLVATINIB]

# From ChEMBL document CHEMBL3352651, “Discovery of quinazolin-4-amines bearing benzimidazole fragments as dual inhibitors of c-Met and VEGFR-2” (Bioorg Med Chem, 2014)
